In one assay the test system is A549 cancer cells. As to the kind of experiment: Senescence induction (SA-β-Gal activity, morphology) of bleomycin-treated cells. Type of assay: cell-based. To be noted: 50 ug/ml for 72 hours; stained 7 days post-treatment. The protocol: (§1) FIG. 1: Senescence-associated beta-galactosidase (SA-β-Gal) activity of bleomycin-treated cells. A549 cancer cells (panel A) and primary human WI-38 fibroblasts (panel B) were treated for 72 hours with 50 ug/ml or 15 ug/ml of bleomycin, respectively. Cells were fixed and stained 7 days post-bleomycin treatment. Non-treated cultures, confluent at the time of staining, were used as controls.

The test system of assay [1] is primary human WI-38 fibroblasts. Described as above. Type of assay: cell-based. To be noted: 15 ug/ml for 72 hours; stained 7 days post-treatment. The protocol: as §1

The text below walks through data of patent publication US20160213714A1, “INDUCTION OF CELLULAR SENESCENCE FOR TISSUE THERAPIES” (Everon Biosciences, Inc., priority 2015, published 2016).

With bleomycin, the cellular morphology result (in the assay on A549 cancer cells; in assay [1]) was “Enlarged cellular morphology” each time.
